pEC50: −log10 of the molar value. No end group written: not given here.
How the values were obtained:
human GLP1R = human GLP1R (Homo sapiens, UniProt P43220); assay: CRE-luc luciferase assay in GLP1R and CRE-luc cotransfected HEK293T cells; type: cell-based
[1] = target: DPP-IV activity of fetal bovine serum (Bos taurus, UniProt P81425); assay: Stability in 100% FBS, residual activity by GLP1R/CRE-luc luciferase assay; type: in vitro ADME; conditions: FBS incubation, 37℃
Chain of DPP-IV activity of fetal bovine serum (P81425 38-765 limits assumed): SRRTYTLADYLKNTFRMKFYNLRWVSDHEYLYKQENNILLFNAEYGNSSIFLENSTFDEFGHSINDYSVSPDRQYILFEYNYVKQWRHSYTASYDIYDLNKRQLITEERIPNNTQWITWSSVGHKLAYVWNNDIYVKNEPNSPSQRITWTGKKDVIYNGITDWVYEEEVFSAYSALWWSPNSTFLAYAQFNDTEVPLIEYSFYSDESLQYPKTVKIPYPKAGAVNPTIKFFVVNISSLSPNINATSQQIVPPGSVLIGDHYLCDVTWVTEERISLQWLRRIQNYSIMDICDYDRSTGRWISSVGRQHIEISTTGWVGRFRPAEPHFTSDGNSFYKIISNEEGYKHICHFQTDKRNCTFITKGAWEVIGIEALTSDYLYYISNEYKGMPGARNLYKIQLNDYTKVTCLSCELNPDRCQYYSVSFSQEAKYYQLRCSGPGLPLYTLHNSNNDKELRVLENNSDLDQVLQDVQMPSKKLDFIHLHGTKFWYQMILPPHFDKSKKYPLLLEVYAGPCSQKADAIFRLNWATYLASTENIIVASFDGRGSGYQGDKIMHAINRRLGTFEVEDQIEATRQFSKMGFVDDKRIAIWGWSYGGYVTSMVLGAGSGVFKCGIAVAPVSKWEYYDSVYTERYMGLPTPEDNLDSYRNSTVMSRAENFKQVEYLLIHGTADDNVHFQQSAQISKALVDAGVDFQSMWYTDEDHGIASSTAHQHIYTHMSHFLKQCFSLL

Chain of human GLP1R (P43220 24-463): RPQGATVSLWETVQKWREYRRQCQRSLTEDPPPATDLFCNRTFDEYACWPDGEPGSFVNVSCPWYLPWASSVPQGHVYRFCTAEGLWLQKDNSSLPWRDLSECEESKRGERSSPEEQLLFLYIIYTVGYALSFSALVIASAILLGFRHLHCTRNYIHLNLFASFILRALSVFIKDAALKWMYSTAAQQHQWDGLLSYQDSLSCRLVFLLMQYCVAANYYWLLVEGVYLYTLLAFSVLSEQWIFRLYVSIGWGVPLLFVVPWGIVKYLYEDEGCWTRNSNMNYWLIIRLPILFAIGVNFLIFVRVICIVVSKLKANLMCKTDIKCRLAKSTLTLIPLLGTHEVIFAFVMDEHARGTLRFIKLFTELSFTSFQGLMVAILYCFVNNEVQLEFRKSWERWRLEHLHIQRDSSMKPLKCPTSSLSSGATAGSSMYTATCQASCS

| Substance | pEC50 (human GLP1R) | stability in serum (overall comparison, words) [1] |
| --- | --- | --- |
| HAEGTFTNDMTNYLEEKAAKEFVGWLIKGR-NH2 [xGLP, Xenopus GLP-1, reference compound] | 9.08 |  |
| HSEGTFTNDMTNYLEEKAAKEFVGWLIKGGPSSGAPPPS [xGLP-E4] | 9.81 | more stable in serum than wild-type human and xGLP |

Reference: article PMC4192806 (Endocrinology and Metabolism, 2014)
